Test results published in publication PMC6067006, “Functionality of Redox-Active Cysteines Is Required for Restriction of Retroviral Replication by SAMHD1” (Cell reports, 2018).
pEC50: −log10 of the molar value.

Assays:
Experiment in all cases: NMR-based dNTPase assay, activation by GTP
Format in all cases: biochemical
[1] = biological target: T1, SAMHD1_114–626 (HD domain construct of SAMHD1) (Homo sapiens, UniProt Q9Y3Z3, C341S)
T1 construct: HD domain construct, residues 114-626, bacterial expression; nucleotide-dependent homotetramer; 10 cysteines
T1 sequence (Q9Y3Z3 114-626 C341S): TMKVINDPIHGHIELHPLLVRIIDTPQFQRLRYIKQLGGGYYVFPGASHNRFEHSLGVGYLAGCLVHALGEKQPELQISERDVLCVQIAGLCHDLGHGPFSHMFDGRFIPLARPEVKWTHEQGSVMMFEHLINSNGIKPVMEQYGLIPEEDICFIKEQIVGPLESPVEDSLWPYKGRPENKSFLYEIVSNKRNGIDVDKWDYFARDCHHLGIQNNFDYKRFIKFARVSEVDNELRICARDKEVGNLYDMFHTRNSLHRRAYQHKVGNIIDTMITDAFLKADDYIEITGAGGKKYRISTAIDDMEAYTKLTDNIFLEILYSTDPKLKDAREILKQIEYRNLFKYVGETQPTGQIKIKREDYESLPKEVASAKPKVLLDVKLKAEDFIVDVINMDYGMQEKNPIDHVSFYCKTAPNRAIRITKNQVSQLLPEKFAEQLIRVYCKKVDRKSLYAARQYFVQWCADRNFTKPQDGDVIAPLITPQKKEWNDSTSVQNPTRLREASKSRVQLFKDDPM
Text: (§1) NMR-based dNTPase assay, activation by GTP on SAMHD1_114–626 (HD domain construct of SAMHD1) | EC50) values for GTP-mediated activation for C341S and C350S were also higher

[2] = biological target: T2, SAMHD1_114–626 (HD domain construct of SAMHD1) (Homo sapiens, UniProt Q9Y3Z3, C350S)
T2 construct: HD domain construct, residues 114-626, bacterial expression; nucleotide-dependent homotetramer; 10 cysteines
T2 sequence (Q9Y3Z3 114-626 C350S): as the sequence (Q9Y3Z3 114-626 C341S) above, with S228C, C237S counted along it
Text: as §1

[3] = biological target: T3, SAMHD1_114–626 (HD domain construct of SAMHD1) (Homo sapiens, UniProt Q9Y3Z3, C522S)
T3 construct: HD domain construct, residues 114-626, bacterial expression; nucleotide-dependent homotetramer; 10 cysteines
T3 sequence (Q9Y3Z3 114-626 C522S): as the sequence (Q9Y3Z3 114-626 C341S) above, with S228C, C409S counted along it
Text: NMR-based dNTPase assay, activation by GTP on SAMHD1_114–626 (HD domain construct of SAMHD1) | properties of the C522S mutant were indistinguishable from those of the WT protein

[4] = biological target: T4, SAMHD1_114–626 (HD domain construct of SAMHD1) (Homo sapiens, UniProt Q9Y3Z3)
T4 construct: HD domain construct, residues 114-626, bacterial expression; nucleotide-dependent homotetramer; 10 cysteines
T4 sequence (Q9Y3Z3 114-626): as the sequence (Q9Y3Z3 114-626 C341S) above, with S228C counted along it
Experimental: NMR-based dNTPase assay, activation by GTP on SAMHD1_114–626 (HD domain construct of SAMHD1) | kcat and EC50^GTP parameters were determined by non-linear fitting

- pEC50 [1]: 4.35
- pEC50 [2]: 5.09
- pEC50 [3]: 5.32
- pEC50 [4]: 5.41
SMILES: Nc1nc2c(ncn2[C@@H]2O[C@H](COP(=O)(O)OP(=O)(O)OP(=O)(O)O)[C@@H](O)[C@H]2O)c(=O)[nH]1 [GTP]
